Data as given in article PMC5444705 (Oncotarget, 2017).
Read-outs that look alike come from different tables or passages of the source.

What was measured:
HepG2 xenograft tumor = assay: Anti-tumor efficacy in HepG2 xenograft tumor mouse model; type: in vivo, Balb/C nude mice; conditions: tail vein injection, 4 mg/kg (WCN-21), 25th day after injection
Protocol: Tumor volume and mouse body weights were recorded during drug administration period. The mice were sacrificed at 25th day after the injection and tumors were collected for histology examination.
(§1) For the efficacy study, 4 × 10^6 HepG2 cells were injected in the front armpit of the Balb/C nude mice. […] The tumor sizes were measured every other day and any death of the mice was recorded. […] TUNEL, Ki67 and hematoxylin and eosin (H&E) staining were performed by using the resected tumor tissue from mice for efficacy study. The tissue sections were examined and photographed with a microscope (Olympus SZX12, Japan) connected to a PC.

[1] = mouse, in vivo, 4 mg/kg
Protocol: as §1, with “To determine the toxicity of WND and WNP, we collected tissues from the mice used in efficacy study for histological analysis. […] For” for “For”

Hep3B cells = assay: MTT assay, Hep3B; type: cell-based; conditions: Homo sapiens
Protocol: (§2) HepG2, Hep3B, Huh7 or L02 cells were seeded in 96-well plates at a density of 5 × 10^3 cells per well. […] After 24 and 48 h of co-incubation, used media were removed and cells were washed twice with PBS. Fresh medium containing 20 μl of MTT ([…]) was added in and cells were cultured for an additional 4 h at 37°C in a 5% CO2incubator. After that, media were removed and 200 μl of DMSO was added in. The optical density value was determined by the microplate reader (Multiskan MK3, Thermo Fisher Scientific, Atlanta, GA, USA) at 492 nm.

HepG2 cells = assay: MTT assay, HepG2; type: cell-based; conditions: Homo sapiens
Protocol: as §2

L02 cells = assay: MTT assay, L02; type: cell-based; conditions: Homo sapiens
Protocol: as §2

Huh7 cells = assay: MTT assay, Huh7; type: cell-based; conditions: Homo sapiens
Protocol: as §2

CC[C@@]1(O)C(=O)OCc2c1cc1n(c2=O)Cc2cc3c(CN(C)C)c(O)ccc3nc2-1 [Topotecan]
Tumor size at 25th day (HepG2 xenograft tumor): 837 mm^3
Body weight change [1]: significant body weight loss
Histological analysis of hearts, livers, spleens, lungs and kidneys [1]: myocardial fiber fracture and cardiocytes necrosis in hearts, inflammatory infiltration in livers, atrophied white pulp in spleens and disorganization of renal corpuscles in kidneys
IC50 (Hep3B cells; 24 h): 462 ± 20 nM
IC50 (Hep3B cells; 48 h): 112 ± 2.4 nM
IC50 (HepG2 cells; HepG2, 24 h): 1590 ± 20.6 nM
IC50 (HepG2 cells; HepG2, 48 h): 285 ± 9 nM
IC50 (L02 cells; L02, 24 or 48 h, time not specified, read-out: IC50 in L02 cells): > 500 nM
IC50 (L02 cells; L02, 24 h, MTT, read-out: IC50): > 500 nM
IC50 (L02 cells; L02, 48 h, MTT, read-out: IC50): > 500 nM
IC50 (Huh7 cells; Huh 7, 24 h): 500 ± 69 nM
IC50 (Huh7 cells; Huh 7, 48 h): 117 ± 48 nM
